Like-named read-outs stand apart in the source and are kept apart here.
Assays:
CYP2C9 and CYP2C19 = conditions: metabolized by CYP2C9 and CYP2C19; cited from earlier work
[1] = freeze–thaw stability (−80 °C, thawed at room temperature three times), High QC 1250
[2] = freeze–thaw stability (−80 °C, thawed at room temperature three times), Low QC 75
[3] = short-term stability T0 (room temperature, immediately after preparation), High QC 1250
[4] = short-term stability T0 (room temperature, immediately after preparation), Low QC 75
[5] = short-term stability T4 (freezer −80 °C, 4 h), High QC 1250
[6] = short-term stability T4 (freezer −80 °C, 4 h), Low QC 75
[7] = short-term stability T24 (freezer −80 °C, 24 h), High QC 1250
[8] = short-term stability T24 (freezer −80 °C, 24 h), Low QC 75

## Cc1cnc(C(=O)NCCc2ccc(S(=O)(=O)NC(=O)N[C@H]3CCC[C@@H](O)C3)cc2)cn1 (relative stereo) [3-cis-hydroxyglipizide]
CYP2C9 and CYP2C19
  Share of glipizide metabolized to the inactive metabolite: 15%

## Cc1cnc(C(=O)NCCc2ccc(S(=O)(=O)NC(=O)N[C@H]3CC[C@H](O)CC3)cc2)cn1 [4-trans-hydroxyglipizide]
CYP2C9 and CYP2C19
  Share of glipizide metabolized to the inactive metabolite: 71%

## Cc1cnc(C(=O)NCCc2ccc(S(=O)(=O)NC(=O)NC3CCCCC3)cc2)cn1 [GLZ, glipizide]
Autosampler 24 h, High QC 1250
  Accuracy (% Error): −1.32%
  Mean ± SD Measurable Conc.: 1233.47 ± 71.06 ng/mL
Autosampler 24 h, Low QC 75
  Accuracy (% Error): 1.83%
  Mean ± SD Measurable Conc.: 76.37 ± 2.27 ng/mL
[1]
  Accuracy (% Error): −1.59%
  Mean ± SD Measurable Conc.: 1230.17 ± 112.55 ng/mL
[2]
  Accuracy (% Error): 4.86%
  Mean ± SD Measurable Conc.: 78.65 ± 4.84 ng/mL
[3]
  Accuracy (% Error): −0.82%
  Mean ± SD Measurable Conc.: 1239.79 ± 68.22 ng/mL
[4]
  Accuracy (% Error): 8.13%
  Mean ± SD Measurable Conc.: 81.10 ± 2.06 ng/mL
[5]
  Accuracy (% Error): 2.82%
  Mean ± SD Measurable Conc.: 1285.25 ± 10.84 ng/mL
[6]
  Accuracy (% Error): −6.68%
  Mean ± SD Measurable Conc.: 69.99 ± 1.61 ng/mL
[7]
  Accuracy (% Error): 4.93%
  Mean ± SD Measurable Conc.: 1311.63 ± 30.52 ng/mL
[8]
  Accuracy (% Error): −6.27%
  Mean ± SD Measurable Conc.: 70.30 ± 2.90 ng/mL

From article PMC9609824 (Molecules, 2022)
